From patent publication US20130281504A1, “Reduction of Microglia-Mediated Neurotoxicity by KCa3.1 Inhibition” (THE REGENTS OF THE UNIVERSITY OF CALIFORNIA, priority 2010, published 2013)

Columns and labels:
[1] = test system: p38MAPK; assay: p38MAPK phosphorylation in microglia (Western blot); format: cell-based, mouse; settings: doxycycline 20 μM, TRAM-34 1 μM, FIG. 2D
Procedure: Primary microglia cultures derived from newborn C57BL/6J mice were prepared from mixed glia cultures with the “shaking off” method described by Maezawa, I., et al.; (2006) FASEB J 20, 797-799. […] To obtain conditioned medium (CM) for treating neurons, microglia were first cultured in 24-well culture plates at a density of 1.3×10^5 cells/cm^2 for 24 hrs in DMEM with 10% fetal bovine serum (DMEM10). Cultures were washed extensively and changed to the Neurobasal medium with B27 supplement (NB/B27, Invitrogen) without serum and cultured for another 24 hrs. The NB/B27-based microglia CMs were collected, briefly centrifuged, and used immediately or frozen for future uses.
To obtain lysates, cells or tissues were washed with ice-cold PBS and incubated with a buffer containing 50 mmol/L Tris-HCl (pH 7.4), 150 mmol/L NaCl, 2% SDS, proteinase inhibitor cocktail (Sigma), and phosphatase inhibitor cocktail (Sigma). Lysates were briefly sonncated and cleared by centrifugation at 50,000 rpm for 10 min. Equivalent amounts of protein were analyzed by Tris/HCL gel electrophoresis. Proteins were transferred to polyvinylidene difluoride membranes and probed with antibodies. Visualization was performed using enhanced chemiluminescence (ECL, Amersham Pharmacia, Piscataway, N.J.).
The following primary antibodies (dilutions) were used: anti-p38MAPK (1:1000, Cell Signaling Technology, Boston, Mass.), anti-phospho-p38MAPK (1:1000, Cell Signaling Technology), anti-Synaptophysin (1:1000, Abcam), anti-PSD95 (1:1000, cell signaling), anti-GRIP 1 (1:1000, UpState), anti-MAP2 (1:1000, Chemicon), anti-acetylated α-tubulin (1:2000, Zymed), and anti-β-actin (1:3000, Sigma). Secondary antibodies were HRP-conjugated anti-rabbit, anti-goat, or anti-mouse antibody (1:3000 Amersham).

[2] = Pharmacokinetics and brain concentrations in rats (HPLC/MS); settings: rat
Procedure: At various time points following the injection approximately 100-200 μl of blood were collected from a tail nick into EDTA blood sample collection tubes. […] Blood samples were taken by cardiac puncture under deep isoflurane anesthesia. The right atrium was then cut open and 20 mL of saline slowly injected into the left ventricle to flush the blood out of the circulation. The rats were then sacrificed and brains removed. Plasma was separated by centrifugation and samples stored at −80° C. pending analysis. Plasma and homogenized brain samples were purified using C18 solid phase extraction (SPE) cartridges. […] LC/MS analysis was performed with a Hewlett-Packard 1100 series HPLC stack equipped with a Merck KGaA RT 250-4 LiChrosorb RP-18 column interfaced to a Finnigan LCQ Classic MS. The mobile phase consisted of acetonitrile and water, both containing 0.2% formic acid.

With `Clc1ccccc1C(c1ccccc1)(c1ccccc1)n1cccn1` [TRAM-34, 1-[(2-chlorophenyl)diphenylmethyl]-1H-pyrazole] the “LPS-induced p38MAPK phosphorylation” value ([1]; LPS 100 ng/ml, 30 minutes) was “no significant difference”, the “AβO-induced p38MAPK phosphorylation” value ([1]; microglia treated 30 minutes) was “no significant difference” and the Kp ([2]; Wistar, in vivo) was 1.2. For the same compound, the half-life ([2]; male, Wistar, in vivo, iv, 10 mg/kg, half-life, rat plasma, calculated from elimination part of i.v. plot) was roughly 2 h, the “total plasma and brain levels, peak” value ([2]; i.p. 10 mg/kg, between 30 min and 1 hour) was “around 2.5” and the plasma peaks ([2]; s.c. 120 mg/kg) was 2.5 ± 1 µM.
